Tests used:
[1] = test system: sMRGPRX2; test: Phase 2 CSU study: serum sMRGPRX2 ELISA; assay type: in vivo, human; conditions: for SMRGPRX2 (ng/mL) Median Percent Change from Baseline: Baseline to Week 12
Source text: (§1) Blood samples were also collected through Week 12 to evaluate the change in baseline in various biomarkers, including sMRGPRX2, IgG anti-TPO, IgG anti-FCεRI, IgG anti-IgE, and IL-31.
(§2) Collection of biological samples for other biomarker research was also part of this study. The following samples for biomarker research were required and were to be collected from all participants in this study: • Serum and plasma samples for soluble biomarkers and cellular tests. Analytes included IgG anti-IgE, IgG anti-FcεRI, IgG anti-TPO, IgE anti-TPO, IL-31, and sMRGPRX2. • Blood samples for immune cell phenotyping, including measurement of eosinophil levels • Blood samples for BTK occupancy in peripheral blood mononuclear cells (PBMCs) at selected sites
(§3) For each patient, serum samples were to be collected on each of four visits (Visits 2, 4, 6, and end of study/follow up).
(§4) Serum analyte testing was to be performed using the following commercial assays: • sMRGPRX2 ELISA (Cat. No. #MBS933336; MyBioSource) • IL-31 HTRF assay (Cat. No. #62HIL31PEG; Cisbio/PerkinElmer) • IgG anti-TPO ELISA (Cat. No. #ORG503; Orgentec Diagnostica GmbH)
(§5) If dilutions were to be prepared, the same dilutions were to be prepared twice from each sample. These were to be measured on different plates. Each plate was to include a standard curve. Samples were to be measured twice for all biomarkers except for sMRGPRX2. Mean measurement values were to be calculated, and the concentration of the biomarker was to be calculated using GraphPad Prism 9 software (4-PL model).
For the sMRGPRX2 ELISA, measurements were performed according to the manufacturer's instructions. Single measurements were obtained for all samples.
(§6) Assay data ranges are described below. • sMRGPRX2: 0.1 ng/mL-10 ng/mL • IgG anti-FCεRI: 0-10000 arbitrary units (AU) • IgG anti-TPO: 0-3000 international units (IU) • IgE anti-TPO: 0-500 AU • IgG anti-IgE: 0-100000 AU • IL-31: 0.1 ng/mL-20 ng/mL

[2] = test system: fetal development or male fertility; conditions: preclinical; cited from earlier work
[3] = test system: mouse model of immune thrombocytopenia; conditions: mouse ITP model; cited from earlier work
[4] = test system: IgG anti-TPO; test: Phase 2 CSU study: serum IgG anti-TPO ELISA; assay type: in vivo, human; conditions: for IgG anti-TPO (IU) Median Percent Change from Baseline: Baseline to Week 12
Source text: as §1, §2, §3, §4, §5
The IgG anti-TPO ELISA was performed according to the manufacturer's instructions.
as §6

[5] = test system: naturally occurring pemphigus foliaceus (PF); conditions: dogs with newly diagnosed pemphigus foliaceus; cited from earlier work
[6] = test system: immune thrombocytopenic purpura (ITP); conditions: cited from earlier work
[7] = test system: 251 kinases sharing a common cysteine in their active site; conditions: 1 μM; cited from earlier work
[8] = test system: healthy volunteers; conditions: cited from earlier work
[9] = test system: patients with moderate-to-severe CSU; test: Phase 2 CSU study: safety (TEAEs, SAEs, AESIs), double-blind period
[10] = 400 mg BID (N = 41), double-blind period, safety population

CC(C)(C=C(C#N)C(=O)N1CCC[C@@H](n2nc(-c3ccc(Oc4ccccc4)cc3F)c3c(N)ncnc32)C1)N1CCN(C2COC2)CC1 [rilzabrutinib, (R)-2-[3-[4-amino-3-(2-fluoro-4-phenoxy-phenyl)pyrazolo[3,4-d]pyrimidin-1-yl]piperidine-1-carbonyl]-4-methyl-4-[4-(oxetan-3-yl)piperazin-1-yl]pent-2-enenitrile]
reduction from baseline median sMRGPRX2 levels ([1]; 400 mg TID, Week 12): 22.8%
SMRGPRX2 (ng/mL) Median Percent Change from Baseline ([1]; 400 mg BID): −29.3%
SMRGPRX2 (ng/mL) Median Percent Change from Baseline ([1]; 400 mg QPM): −31.1%
SMRGPRX2 (ng/mL) Median Percent Change from Baseline ([1]; 400 mg TID): −22.8%
reproductive toxicity [2]: not expected to harm fetal development or male fertility
platelet loss [3]: reduction
reduction from baseline for IgG anti-TPO ([4]; 400 mg TID, Week 12): 46.7%
IgG anti-TPO (IU) Median Percent Change from Baseline ([4]; 400 mg BID): −19.4%
IgG anti-TPO (IU) Median Percent Change from Baseline ([4]; 400 mg QPM): −39.9%
IgG anti-TPO (IU) Median Percent Change from Baseline ([4]; 400 mg TID): −46.7%
cases with disease controlled without corticosteroid [5]: 4 of 4
treatment-emergent serious adverse events (TESAEs) ([6]; ITP Phase 1/2): no treatment-emergent serious adverse events
participants achieving the primary response endpoint ([6]; ITP, treatment for at least 12 weeks): 50%
number of kinases inhibited (>90% inhibition) of 251 kinases [7]: 6
most commonly reported adverse events [8]: gastrointestinal adverse events, including nausea/vomiting and diarrhea
serious adverse events or deaths [8]: No serious adverse events or deaths
Participants with any TEAE [9, 10]: 30 (73.2) n (%)
Participants with any TEAE leading to death [9, 10]: 0 n (%)
Participants with any TEAE leading to death ([9]; 400 mg QPM (N = 38), double-blind period, safety population): 0 n (%)
Participants with any TEAE leading to death ([9]; 400 mg TID (N = 41), double-blind period, safety population): 0 n (%)
patients with ALT increases>3×ULN (AESI) ([9]; BID cohort): 1 patient
patients with ALT increases>3×ULN (AESI) ([9]; QPM cohort): 2 patients
patients with ALT increases>3×ULN (AESI) ([9]; TID cohort): 1 patient
drug-induced liver injuries (including Hy's law) ([9]; double-blind period): no drug-induced liver injuries
severe/serious infections or opportunistic infections ([9]; double-blind period): no severe/serious infections or opportunistic infections
deaths ([9]; throughout the study): no deaths
treatment-emergent SAEs ([9]; throughout the study, same incidence across all rilzabrutinib dosing groups): 3

— US20260256792A1, “TREATMENT OF CHRONIC SPONTANEOUS URTICARIA BY ADMINISTERING (R)-2-[3-[4-AMINO-3-(2-FLUORO-4-PHENOXY-PHENYL)PYRAZOLO[3,4-D]PYRIMIDIN-1-YL]PIPERIDINE-1-CARBONYL]-4-METHYL-4-[4-(OXETAN-3-YL)PIPERAZIN-1-YL]PENT-2-ENENITRILE” (priority 2023, published 2026)
